Measurements: patent US12491180B2, “Application of compound in treating pneumonia” (SHENZHEN OPTIMUM BIOLOGICAL TECHNOLOGY CO., LTD., priority 2019, dated 2025)
In brackets after ≈: the same amount, converted by molar mass. Like-named read-outs stand apart in the source and are kept apart here.

Assays:
[1] = system: Enterobacter aerogenes 8193; assay: MIC, solid dilution method; assay type: cell-based; settings: Klebsiella aerogenes
Method: CRE Enterobacter aerogenes 8193, a total of 1 strain;
(§1) The above-mentioned glycerol-preserved strains were taken out from the −80° C. refrigerator, streaked and inoculated on MHA plates, labeled, and cultured overnight in a 37° C. incubator.
(§2) The inoculum was prepared directly from bacterial suspension, and several recovered colonies were picked and directly prepared into a bacterial suspension with a turbidity of No. 0.5 McFarland units in normal saline, and a 10-fold dilution was made during inoculation.
(§3) 6 bottles of MHA culture medium 500 mL/bottle were prepared, and the pH was adjusted to 7.2-7.4, sterilized at 121° C. for 15 min, and the medium was placed in a 55° C. water bath to keep warm.
(§4) Sterile blank petri dishes were taken, and marked with each FL drug/concentration according to 2-fold dilution, and 10 concentrations of each drug starting from 8 μg/mL were tested.
(§5) […]; 20 mL was aspirated and added to a petri dish consistent with the mark, and then 20 mL of MHA culture medium was added to the rest of the drug-containing culture medium, mixed evenly, that is, the 2-fold diluted drug-containing culture medium; 20 mL was aspirated and added to the petri dish consistent with the mark, and then diluted to the 10th concentration and the […] respectively by repeating the above-mentioned steps, and then poured into the petri dish.
(§6) 4 bacterial control petri dishes without drug were prepared at the same time as a control.
(§7) The positioning needle and the inoculation needle were installed according to the order of placement of the colony on the inoculation plate. After inoculation, a bacterial solution circle was formed on the petri dish. After the bacterial solution was absorbed by the agar, the petri dish was placed in an incubator at 37° C. for overnight incubation (16-20 hours), and then taken out.
(§8) The minimum inhibitory concentrations of the compounds against the CRE and CSE strains were determined by the solid dilution method, and the results are shown in Tables 3 and 4.

[2] = system: Enterobacter cloacae 11090; assay: MIC, solid dilution method; assay type: cell-based
Method: as §1, §2, §4, §6, §7

[3] = system: Enterobacter cloacae 11699; assay: MIC, solid dilution method; assay type: cell-based
Method: as §1, §2, §4, §6, §7

[4] = system: Enterobacter cloacae 14653; assay: MIC, solid dilution method; assay type: cell-based
Method: as §1, §2, §4, §6, §7

[5] = system: Citrobacter freundii 9484; assay: MIC, solid dilution method; assay type: cell-based
Method: (§9) CRE Citrobacter freundii 9434, 9484 and CSE Citrobacter freundii 7646, a total of 3 strains;
as §1, §2, §3, §4, §5, §6, §7, §8

[6] = system: Citrobacter freundii 7646; assay: MIC, solid dilution method; assay type: cell-based
Method: as §9, §1, §2, §3, §4, §5, §6, §7, §8

[7] = system: Citrobacter freundii 9434; assay: MIC, solid dilution method; assay type: cell-based; settings: 9434
Method: as §9, §1, §2, §3, §4, §5, §6, §7, §8

[8] = system: 16 clinical CRE strains; assay: MIC50, MIC90 and MIC range against 16 clinical CRE strains; assay type: cell-based
Method: as §1, §2, §3, §4, §5, §6, §7, §8

[9] = system: Klebsiella pneumoniae 11544; assay: MIC, solid dilution method; assay type: cell-based
Method: (§10) (2) Clinical isolated strains: CRE Klebsiella pneumoniae 5846, 11544, 12559, 13249 and CSE Klebsiella pneumoniae 8733, a total of 5 strains;
as §1, §2, §3, §4, §5, §6, §7, §8

[10] = system: Klebsiella pneumoniae 8733; assay: MIC, solid dilution method; assay type: cell-based
Method: as §10, §1, §2, §3, §4, §5, §6, §7, §8

[11] = system: Klebsiella pneumoniae 5846; assay: MIC, solid dilution method; assay type: cell-based
Method: as §10, §1, §2, §3, §4, §5, §6, §7, §8

[12] = system: Klebsiella pneumoniae 13249; assay: MIC, solid dilution method; assay type: cell-based
Method: as §10, §1, §2, §3, §4, §5, §6, §7, §8

[13] = system: Klebsiella pneumoniae 12559; assay: MIC, solid dilution method; assay type: cell-based
Method: as §10, §1, §2, §3, §4, §5, §6, §7, §8

[14] = system: Serratia marcescens 14541; assay: MIC, solid dilution method; assay type: cell-based; settings: 14541
Method: (§11) CRE Acinetobacter baumannii 8476, 6383, a total of 2 strains; CRE Serratia marcescens 14541, a total of 1 strain; all collected in the Department of Infectious Diseases, West China Hospital, Chengdu, Sichuan Province, and kept in our laboratory.
as §1, §2, §3, §4, §5, §6, §7, §8

[15] = system: Acinetobacter baumannii 8476; assay: MIC, solid dilution method; assay type: cell-based
Method: as §11, §1, §2, §3, §4, §5, §6, §7, §8

[16] = system: Acinetobacter baumannii 6383; assay: MIC, solid dilution method; assay type: cell-based
Method: as §11, §1, §2, §3, §4, §5, §6, §7, §8

[17] = system: Klebsiella oxytoca 12391; assay: MIC, solid dilution method; assay type: cell-based
Method: as §1, §2, §3, §4, §5, §6, §7, §8

[18] = system: Klebsiella oxytoca 14151; assay: MIC, solid dilution method; assay type: cell-based
Method: as §1, §2, §3, §4, §5, §6, §7, §8

[19] = system: Klebsiella oxytoca 14153; assay: MIC, solid dilution method; assay type: cell-based
Method: as §1, §2, §3, §4, §5, §6, §7, §8

[20] = system: Escherichia coli 14828; assay: MIC, solid dilution method; assay type: cell-based
Method: as §1, §2, §3, §4, §5, §6, §7, §8

[21] = system: Escherichia coli 11119; assay: MIC, solid dilution method; assay type: cell-based
Method: as §1, §2, §3, §4, §5, §6, §7, §8

[22] = system: Klebsiella oxytoca 6777; assay: MIC, solid dilution method; assay type: cell-based
Method: as §1, §2, §3, §4, §5, §6, §7, §8

[23] = system: E. coli 11256; assay: MIC, solid dilution method; assay type: cell-based; settings: Escherichia coli
Method: as §1, §2, §3, §4, §5, §6, §7, §8

[24] = system: Escherichia coli 13897; assay: MIC, solid dilution method; assay type: cell-based
Method: as §1, §2, §3, §4, §5, §6, §7, §8

[25] = system: Escherichia coli ATCC25922; assay: MIC, solid dilution method; assay type: cell-based
Method: (§12) (1) Standard strains: Escherichia coli BAA-2452, Escherichia coli ATCC25922, Klebsiella pneumoniae BAA-1705; all purchased from ATCC.
as §1, §2, §3, §4, §5, §6, §7, §8

[26] = system: Klebsiella pneumoniae BAA-1705; assay: MIC, solid dilution method; assay type: cell-based
Method: as §12, §1, §2, §3, §4, §5, §6, §7, §8

[27] = system: Escherichia coli BAA-2452; assay: MIC, solid dilution method; assay type: cell-based
Method: as §12, §1, §2, §3, §4, §5, §6, §7, §8

[28] = system: E. ae 14186; assay: MIC, solid dilution method; assay type: cell-based, Enterobacter aerogenes; settings: Klebsiella aerogenes, 14186
Method: as §1, §2, §3, §4, §5, §6, §7, §8

## CC1(C)[C@H](NC(=O)/C(=N\O[C@@H](COc2ccc3c(c2)CN(C(=N)N(CCN)CCN)C3)C(=O)O)c2csc(N)n2)C(=O)N1OS(=O)(=O)O [Compound 45]
[1]; 8193
  MIC: 4 mg/L (≈ 5.61 µM)
[2]; 11090
  MIC: 4 mg/L (≈ 5.61 µM)
[3]; 11699
  MIC: 0.25 mg/L (≈ 0.351 µM)
[4]; 14653
  MIC: 2 mg/L (≈ 2.81 µM)
[5]; 9484
  MIC: 0.25 mg/L (≈ 0.351 µM)
[6]; 7646
  MIC: 1 mg/L (≈ 1.4 µM)
[7]
  MIC: 2 mg/L (≈ 2.81 µM)
[8]
  MIC50: 4 mg/L (≈ 5.61 µM)
  MIC90: > 8 mg/L
[9]; 11544
  MIC: > 8 mg/L
[10]; 8733
  MIC: 0.5 mg/L (≈ 0.701 µM)
[11]; 5846
  MIC: 1 mg/L (≈ 1.4 µM)
[12]; 13249
  MIC: > 8 mg/L
[13]; 12559
  MIC: 0.5 mg/L (≈ 0.701 µM)
[14]
  MIC: > 8 mg/L
[15]; 8476
  MIC: > 8 mg/L
[16]; 6383
  MIC: > 8 mg/L
[17]; 12391
  MIC: 1 mg/L (≈ 1.4 µM)
[18]; 14151
  MIC: 2 mg/L (≈ 2.81 µM)
[19]; 14153
  MIC: 2 mg/L (≈ 2.81 µM)
[20]; 14828
  MIC: 2 mg/L (≈ 2.81 µM)
[21]; 11119
  MIC: 8 mg/L (≈ 11.2 µM)
[22]; 6777
  MIC: 2 mg/L (≈ 2.81 µM)
[23]; 11256
  MIC: 0.25 mg/L (≈ 0.351 µM)
[24]; 13897
  MIC: 0.5 mg/L (≈ 0.701 µM)
[25]; ATCC25922
  MIC: 0.125 mg/L (≈ 0.175 µM)
[26]; BAA1705
  MIC: 2 mg/L (≈ 2.81 µM)
[27]; BAA2452
  MIC: 1 mg/L (≈ 1.4 µM)
[28]
  MIC: 2 mg/L (≈ 2.81 µM)

## C[C@@H](O)[C@H]1C(=O)N2C(C(=O)O)=C(S[C@@H]3CN[C@H](C(=O)N(C)C)C3)[C@H](C)[C@H]12 [Meropenem, reference compound]
[1]; E. ae 8193, CRE clinical isolate, MHA agar, 37° C., 16-20 hours, read-out: MIC
  MIC: 16 mg/L (≈ 41.7 µM)
[2]; E. cl 11090, CRE clinical isolate, MHA agar, 37° C., 16-20 hours, read-out: MIC
  MIC: 0.5 mg/L (≈ 1.3 µM)
[3]; E. cl 11699, CSE clinical isolate, MHA agar, 37° C., 16-20 hours, read-out: MIC
  MIC: < 0.015 mg/L
[4]; E. cl 14653, CRE clinical isolate, MHA agar, 37° C., 16-20 hours, read-out: MIC
  MIC: 64 mg/L (≈ 167 µM)
[5]; C.f 9484, CRE clinical isolate, MHA agar, 37° C., 16-20 hours, read-out: MIC
  MIC: 0.06 mg/L (≈ 0.156 µM)
[6]; C.f 7646, CSE clinical isolate, MHA agar, 37° C., 16-20 hours, read-out: MIC
  MIC: < 0.015 mg/L
[7]
  MIC: > 128 mg/L
[9]; K.p 11544, CRE clinical isolate, MHA agar, 37° C., 16-20 hours, read-out: MIC
  MIC: 32 mg/L (≈ 83.4 µM)
[10]; K.p 8733, CSE clinical isolate, MHA agar, 37° C., 16-20 hours, read-out: MIC
  MIC: 0.03 mg/L (≈ 0.0782 µM)
[11]; K.p 5846, CRE clinical isolate, MHA agar, 37° C., 16-20 hours, read-out: MIC
  MIC: 8 mg/L (≈ 20.9 µM)
[12]; K.p 13249, CRE clinical isolate, MHA agar, 37° C., 16-20 hours, read-out: MIC
  MIC: 64 mg/L (≈ 167 µM)
[13]; K.p 12559, CRE clinical isolate, MHA agar, 37° C., 16-20 hours, read-out: MIC
  MIC: 4 mg/L (≈ 10.4 µM)
[14]
  MIC: 128 mg/L (≈ 334 µM)
[15]; A.B 8476, CRE clinical isolate, MHA agar, 37° C., 16-20 hours, read-out: MIC
  MIC: 64 mg/L (≈ 167 µM)
[16]; A.B 6383, CRE clinical isolate, MHA agar, 37° C., 16-20 hours, read-out: MIC
  MIC: 64 mg/L (≈ 167 µM)
[17]; K. ox 12391, CRE clinical isolate, MHA agar, 37° C., 16-20 hours, read-out: MIC
  MIC: 2 mg/L (≈ 5.22 µM)
[18]; K. ox 14151, CRE clinical isolate, MHA agar, 37° C., 16-20 hours, read-out: MIC
  MIC: 16 mg/L (≈ 41.7 µM)
[19]; K. ox 14153, CRE clinical isolate, MHA agar, 37° C., 16-20 hours, read-out: MIC
  MIC: 32 mg/L (≈ 83.4 µM)
[20]; E. coli 14828, CRE clinical isolate, MHA agar, 37° C., 16-20 hours, read-out: MIC
  MIC: 8 mg/L (≈ 20.9 µM)
[21]; E. coli 11119, CRE clinical isolate, MHA agar, 37° C., 16-20 hours, read-out: MIC
  MIC: 16 mg/L (≈ 41.7 µM)
[22]; K. ox 6777, CRE clinical isolate, MHA agar, 37° C., 16-20 hours, read-out: MIC
  MIC: 16 mg/L (≈ 41.7 µM)
[23]; E. coli 11256, MHA agar, 37° C., 16-20 hours, read-out: MIC
  MIC: < 0.015 mg/L
[24]; E. coli 13897, CRE clinical isolate, MHA agar, 37° C., 16-20 hours, read-out: MIC
  MIC: 4 mg/L (≈ 10.4 µM)
[25]; E. coli ATCC25922, standard strain, MHA agar, 37° C., 16-20 hours, read-out: MIC
  MIC: < 0.015 mg/L
[26]; BAA1705, K.p BAA-1705, standard strain, MHA agar, 37° C., 16-20 hours, read-out: MIC
  MIC: 16 mg/L (≈ 41.7 µM)
[27]; BAA2452, E. coli BAA-2452, standard strain, MHA agar, 37° C., 16-20 hours, read-out: MIC
  MIC: 16 mg/L (≈ 41.7 µM)
[28]
  MIC: 0.125 mg/L (≈ 0.326 µM)
